Data taken from article PMC3964211, “Pharmacokinetic modeling optimizes inhibition of the ‘undruggable’ EWS-FLI1 transcription factor in Ewing Sarcoma” (Oncotarget, 2013).

Legend:
A4573 xenograft = assay: Orthotopic mouse xenograft model, A4573, IP dosing; type: in vivo, SCID/bg mice; conditions: for Tumor histology (hematoxylin and eosin): A4573 tumors, two hours following the 6th dose; for Tumor histology (hematoxylin and eosin) / Regression of tumor volume over 3 days: BID IP 400 mg/kg; for Regression of tumor volume over 3 days: A4573 xenograft, 3-day, six-dose
Procedure: (§1) A series of models that combined results from in vitro colony assays and in vivo PK data were developed to evaluate several potential dosing schemes for the mice (Supplementary Figures 1A-E). We selected an IP dosing strategy (twice daily (BID) injections of […] racemic mixture) that would maintain a 3 ¼M plasma levels for greater than 72 hours in the mice (Figure 3A). With this IP dosing regimen, xenograft growth of A4573 was 70% less in the YK-4-279 treatment group compared to vehicle control (Figure 3B, p=0.04). […] To confrm the impact of YK-4-279 treatment on xenograft growth, mice with SK-ES xenografts were treated with racemic, (S), or (R)-YK-4-279 until control tumors reached 1 cm^3. Xenograft growth was reduced for those mice receiving both racemic and (S)-YK-4-279 over the control (Figure 3D, p=0.02 and p=0.003, respectively). […] Tumors were analyzed for drug levels of racemic, (R)-, and (S)-YK-4-279. Three of four mice treated with racemic compound had tumor levels of (S)-YK-4-279 that ranged from ~12-35 ¼g eq/g, which correlated with tumor growth ratios of less than 1.0, indicating response to the drug (Figure 3F). Those animals treated with the active (S)-YK-4-279 levels had tumor levels that were below 10 ¼g eq/g (Figure 3F). Tumor levels of (R)-YK-4-279 are also provided (Supplementary Figure 1F).
(§2) In order to evaluate tumors from animals treated in a similar fashion, including resection prior to central necrosis in controls, a 3-day, six-dose, experiment was executed. Treatment was initiated with racemic, (S)-, or (R)-YK-4-279 using BID IP administration at 400 mg/kg when tumors were well established at a volume of 250 to 300 mm^3. Both ES models treated with either racemic or (S)-YK-4-279 regressed by 25–30% of tumor volume over 3 days, while tumors grew in control and (R)-YK-4-279 treated animals (Figures 4A and B). Two hours following the 6th dose, mice were euthanized for tumor analysis. […] To confirm the apoptotic cell death, sections from A4573 tumors were stained with TUNEL (Figures 4D) and there was a 3 – 4 fold increase in TUNEL-positive cells treated with (S)-YK-4-279 compared to (R)-YK-R-279 treated tumors (Figure 4E). […] Levels of each enantiomer were measured in tumor samples and (S)-YK-4-279 levels correlated with clinical regression (Supplemental Figure 2B–E).
Two million A4573 or SK-ES Ewing's sarcoma cells in 0.1 mL were injected into an orthotopic paraosseous location, adjacent to the left proximal tibia, in 5-week-old female severe combined immunodeficient-beige (SCID/bg) mice (Harlan Laboratories, Inc., Indianapolis, IN). After primary tumors reached 250 – 300 mm^3 size, mice were randomized and received intraperitoneal injection (IP) with vehicle control (0.25% Lecithin solution or DMSO), (S)-YK-4-279, (R)-YK-4-279 or racemic YK-4-279 at a dose of 400 mg/kg twice a day (BID) for 7 days in a week. The tumor volume was determined by the formula (D × d2/6) × p, where D was the longer diameter and d was the shorter diameter. Tumor volume was monitored every day by caliper until the tumor size reaches 1cm^3. Mice were euthanized and primary tumors were collected. For the pharmacodynamics study mice were randomized and received 6 doses treatment with vehicle control (0.25% Lecithin solution or DMSO), (S)-YK-4-279, (R)-YK-4-279 or racemic YK-4-279 at a dose of 400 mg/kg twice a day (BID). Mice were euthanized after 2 hours of last 6th dosing and primary tumors were collected. […]

SK-ES xenograft = assay: Orthotopic mouse xenograft model, SK-ES, IP dosing; type: in vivo; conditions: for Regression of tumor volume over 3 days: SK-ES xenograft, 3-day, six-dose
Procedure: as §1, §2
Two million A4573 or SK-ES Ewing's sarcoma cells in 0.1 mL were injected into an orthotopic paraosseous location, adjacent to the left proximal tibia, in 5-week-old female severe combined immunodeficient-beige (SCID/bg) mice (Harlan Laboratories, Inc., Indianapolis, IN). After primary tumors reached 250 – 300 mm^3 size, mice were randomized and received intraperitoneal injection (IP) with vehicle control (0.25% Lecithin solution or DMSO), (S)-YK-4-279, (R)-YK-4-279 or racemic YK-4-279 at a dose of 400 mg/kg twice a day (BID) for 7 days in a week. The tumor volume was determined by the formula (D × d2/6) × p, where D was the longer diameter and d was the shorter diameter. Tumor volume was monitored every day by caliper until the tumor size reaches 1cm^3. Mice were euthanized and primary tumors were collected. For the pharmacodynamics study mice were randomized and received 6 doses treatment with vehicle control (0.25% Lecithin solution or DMSO), (S)-YK-4-279, (R)-YK-4-279 or racemic YK-4-279 at a dose of 400 mg/kg twice a day (BID). Mice were euthanized after 2 hours of last 6th dosing and primary tumors were collected. Animal studies were approved by an Institutional Animal Care and Use Committee of the Georgetown University.
The plasma and tumor sample analysis was performed using calibration standards and Quality Control (QC) samples prepared in control rat or mouse plasma and tumor tissues. Plasma and tumor calibration standards were prepared from stock solutions of YK-4-279. […]

SMILES | Tumor histology (hematoxylin and eosin) (A4573 xenograft) | Regression of tumor volume over 3 days (A4573 xenograft) | Regression of tumor volume over 3 days (SK-ES xenograft; BID IP 400 mg/kg) | Xenograft growth less than vehicle control (A4573 xenograft; A4573 xenograft mice, BID IP racemic mixture (375 mg/kg in text, 400 mg/kg in Figure 3 legend), p=0.04) | Overall survival (SK-ES xenograft; SK-ES xenograft mice, BID IP 400 mg/kg, p=0.013 vs control) | Xenograft growth less than control group (SK-ES xenograft; SK-ES xenograft mice, BID IP racemic mixture (375 mg/kg in text, 400 mg/kg in Figure 3 legend), p=0.02) | Xenograft growth over the control (SK-ES xenograft; SK-ES xenografts, BID IP 400 mg/kg until control tumors reached 1 cm^3) | Tumor growth ratios (SK-ES xenograft; SK-ES xenografts, three of four mice treated with racemic compound)
COc1ccc(C(=O)C[C@]2(O)C(=O)Nc3c(Cl)ccc(Cl)c32)cc1 [(R)-YK-4-279] | healthy tumor cells, but fewer mitotic figures than the DMSO control | tumors grew | tumors grew |  |  |  |  | 
COc1ccc(C(=O)CC2(O)C(=O)Nc3c(Cl)ccc(Cl)c32)cc1 (centres unmarked) [YK-4-279] | vacuolar cell death and nuclear fragmentation consistent with apoptosis | 25–30% | 25–30% | 70% | improved overall survival | 70% | reduced | less than 1.0
